From ChEMBL document CHEMBL3797178, “Synthesis, antimycobacterial and antibacterial activity of 1-(6-amino-3,5-difluoropyridin-2-yl)fluoroquinolone derivatives containing an oxime functional moiety” (2016)
Converted amounts (≈) assume the structure as drawn.

Key:
Type in all cases: functional
[1] = tested on: Mycobacterium tuberculosis; test: Antimycobacterial activity against Mycobacterium tuberculosis H37Rv ATCC 27294 after 3 days by microplate Alamar Blue assay; settings: H37Rv ATCC 27294, 72 h
[2] = tested on: Escherichia coli; test: Antibacterial activity against Escherichia coli ATCC 25922 after 18 to 24 hrs by CLSI M100-S11 method
[3] = tested on: Escherichia coli; test: Antibacterial activity against extended-spectrum beta-lactamase-producing Escherichia coli 14-1 after 18 to 24 hrs by CLSI M100-S11 method
[4] = tested on: Escherichia coli; test: Antibacterial activity against extended-spectrum beta-lactamase-producing Escherichia coli 14-2 after 18 to 24 hrs by CLSI M100-S11 method
[5] = tested on: Escherichia coli; test: Antibacterial activity against Escherichia coli 14-1 after 18 to 24 hrs by CLSI M100-S11 method
[6] = tested on: Escherichia coli; test: Antibacterial activity against Escherichia coli 14-2 after 18 to 24 hrs by CLSI M100-S11 method
[7] = tested on: Klebsiella pneumoniae; test: Antibacterial activity against extended-spectrum beta-lactamase-producing Klebsiella pneumoniae 14-17 after 18 to 24 hrs by CLSI M100-S11 method
[8] = tested on: Klebsiella pneumoniae; test: Antibacterial activity against extended-spectrum beta-lactamase-producing Klebsiella pneumoniae 14-18 after 18 to 24 hrs by CLSI M100-S11 method
[9] = tested on: Klebsiella pneumoniae; test: Antibacterial activity against extended-spectrum beta-lactamase-producing Klebsiella pneumoniae 14-19 after 18 to 24 hrs by CLSI M100-S11 method
[10] = tested on: Klebsiella pneumoniae; test: Antibacterial activity against Klebsiella pneumoniae 14-1 after 18 to 24 hrs by CLSI M100-S11 method
[11] = tested on: Klebsiella pneumoniae; test: Antibacterial activity against Klebsiella pneumoniae 14-2 after 18 to 24 hrs by CLSI M100-S11 method
[12] = tested on: Klebsiella pneumoniae; test: Antibacterial activity against Klebsiella pneumoniae 14-3 after 18 to 24 hrs by CLSI M100-S11 method
[13] = tested on: Klebsiella pneumoniae; test: Antibacterial activity against Klebsiella pneumoniae 14-4 after 18 to 24 hrs by CLSI M100-S11 method
[14] = tested on: Pseudomonas aeruginosa; test: Antibacterial activity against Pseudomonas aeruginosa ATCC 27853 after 18 to 24 hrs by CLSI M100-S11 method
[15] = tested on: Pseudomonas aeruginosa; test: Antibacterial activity against Pseudomonas aeruginosa 14-9 after 18 to 24 hrs by CLSI M100-S11 method
[16] = tested on: Pseudomonas aeruginosa; test: Antibacterial activity against Pseudomonas aeruginosa 14-14 after 18 to 24 hrs by CLSI M100-S11 method
[17] = tested on: Pseudomonas aeruginosa; test: Antibacterial activity against Pseudomonas aeruginosa 14-15 after 18 to 24 hrs by CLSI M100-S11 method
[18] = tested on: Pseudomonas aeruginosa; test: Antibacterial activity against Pseudomonas aeruginosa 14-16 after 18 to 24 hrs by CLSI M100-S11 method
[19] = tested on: Pseudomonas aeruginosa; test: Antibacterial activity against Pseudomonas aeruginosa 14-19 after 18 to 24 hrs by CLSI M100-S11 method
[20] = tested on: Staphylococcus aureus; test: Antibacterial activity against Staphylococcus aureus CMCC 26003 after 18 to 24 hrs by CLSI M100-S11 method
[21] = tested on: Staphylococcus aureus; test: Antibacterial activity against methicillin-sensitive Staphylococcus aureus 14-2 after 18 to 24 hrs by CLSI M100-S11 method
[22] = tested on: Staphylococcus aureus; test: Antibacterial activity against methicillin-sensitive Staphylococcus aureus 14-3 after 18 to 24 hrs by CLSI M100-S11 method
[23] = tested on: Staphylococcus aureus; test: Antibacterial activity against methicillin-sensitive Staphylococcus aureus 14-4 after 18 to 24 hrs by CLSI M100-S11 method
[24] = tested on: Staphylococcus aureus; test: Antibacterial activity against methicillin-resistant Staphylococcus aureus 14-4 after 18 to 24 hrs by CLSI M100-S11 method
[25] = tested on: Staphylococcus aureus; test: Antibacterial activity against methicillin-resistant Staphylococcus aureus 14-5 after 18 to 24 hrs by CLSI M100-S11 method
[26] = tested on: Staphylococcus epidermidis; test: Antibacterial activity against methicillin-sensitive Staphylococcus epidermidis 14-2 after 18 to 24 hrs by CLSI M100-S11 method
[27] = tested on: Staphylococcus epidermidis; test: Antibacterial activity against methicillin-sensitive Staphylococcus epidermidis 14-4 after 18 to 24 hrs by CLSI M100-S11 method
[28] = tested on: Staphylococcus epidermidis; test: Antibacterial activity against methicillin-sensitive Staphylococcus epidermidis 14-6 after 18 to 24 hrs by CLSI M100-S11 method
[29] = tested on: Staphylococcus epidermidis; test: Antibacterial activity against methicillin-resistant Staphylococcus epidermidis 14-22 after 18 to 24 hrs by CLSI M100-S11 method
[30] = tested on: Staphylococcus epidermidis; test: Antibacterial activity against methicillin-resistant Staphylococcus epidermidis 14-37 after 18 to 24 hrs by CLSI M100-S11 method
[31] = tested on: Streptococcus pneumoniae; test: Antibacterial activity against Streptococcus pneumoniae ATCC 19615 after 18 to 24 hrs by CLSI M100-S11 method
[32] = tested on: Enterococcus faecium; test: Antibacterial activity against Enterococcus faecium 14-1 after 18 to 24 hrs by CLSI M100-S11 method
[33] = tested on: Enterococcus faecium; test: Antibacterial activity against Enterococcus faecium 14-2 after 18 to 24 hrs by CLSI M100-S11 method
[34] = tested on: Enterococcus faecalis; test: Antibacterial activity against Enterococcus faecalis 14-1 after 18 to 24 hrs by CLSI M100-S11 method
[35] = tested on: Enterococcus faecalis; test: Antibacterial activity against Enterococcus faecalis 14-2 after 18 to 24 hrs by CLSI M100-S11 method
[36] = tested on: Enterococcus faecalis; test: Antibacterial activity against Enterococcus faecalis 14-3 after 18 to 24 hrs by CLSI M100-S11 method
[37] = tested on: Staphylococcus epidermidis; test: Antibacterial activity against methicillin-resistant Staphylococcus epidermidis 14-39 after 18 to 24 hrs by CLSI M100-S11 method

SMILES: CO/N=C1\CCN(c2nc3c(cc2F)c(=O)c(C(=O)O)cn3-c2nc(N)c(F)cc2F)CC1N (stereo not drawn)
- MIC [1]: > 32 µg/mL
- MIC [2]: 16 µg/mL (≈ 33.5 µM)
- MIC [3]: > 128 µg/mL
- MIC [4]: > 128 µg/mL
- MIC [5]: > 128 µg/mL
- MIC [6]: > 128 µg/mL
- MIC [7]: > 128 µg/mL
- MIC [8]: > 128 µg/mL
- MIC [9]: > 128 µg/mL
- MIC [10]: > 128 µg/mL
- MIC [11]: > 128 µg/mL
- MIC [12]: > 128 µg/mL
- MIC [13]: > 128 µg/mL
- MIC [14]: 128 µg/mL (≈ 268 µM)
- MIC [15]: 128 µg/mL (≈ 268 µM)
- MIC [16]: 128 µg/mL (≈ 268 µM)
- MIC [17]: 128 µg/mL (≈ 268 µM)
- MIC [18]: 128 µg/mL (≈ 268 µM)
- MIC [19]: 128 µg/mL (≈ 268 µM)
- MIC [20]: 8 µg/mL (≈ 16.8 µM)
- MIC [21]: 8 µg/mL (≈ 16.8 µM)
- MIC [22]: 8 µg/mL (≈ 16.8 µM)
- MIC [23]: 16 µg/mL (≈ 33.5 µM)
- MIC [24]: > 128 µg/mL
- MIC [25]: > 128 µg/mL
- MIC [26]: > 128 µg/mL
- MIC [27]: > 128 µg/mL
- MIC [28]: > 128 µg/mL
- MIC [29]: > 128 µg/mL
- MIC [30]: > 128 µg/mL
- MIC [31]: 64 µg/mL (≈ 134 µM)
- MIC [32]: > 128 µg/mL
- MIC [33]: 64 µg/mL (≈ 134 µM)
- MIC [34]: > 128 µg/mL
- MIC [35]: > 128 µg/mL
- MIC [36]: > 128 µg/mL

SMILES: O=C(O)c1cn(C2CC2)c2cc(N3CCNCC3)c(F)cc2c1=O [CIPROFLOXACIN]
- MIC [1]: 0.25 µg/mL (≈ 0.754 µM)

SMILES: NNC(=O)c1ccncc1 [ISONIAZID]
- MIC [1]: 0.05 µg/mL (≈ 0.365 µM)

SMILES: C[C@H]1COc2c(N3CCN(C)CC3)c(F)cc3c(=O)c(C(=O)O)cn1c23.C[C@H]1COc2c(N3CCN(C)CC3)c(F)cc3c(=O)c(C(=O)O)cn1c23.O [LEVOFLOXACIN]
- MIC [1]: 0.25 µg/mL
- MIC [2]: 0.125 µg/mL
- MIC [3]: 2 µg/mL
- MIC [4]: 8 µg/mL
- MIC [5]: 4 µg/mL
- MIC [6]: 4 µg/mL
- MIC [7]: 4 µg/mL
- MIC [9]: 64 µg/mL
- MIC [10]: 16 µg/mL
- MIC [11]: 8 µg/mL
- MIC [12]: 16 µg/mL
- MIC [13]: 8 µg/mL
- MIC [20]: 0.125 µg/mL
- MIC [21]: 0.25 µg/mL
- MIC [22]: 0.125 µg/mL
- MIC [23]: 0.5 µg/mL
- MIC [24]: 64 µg/mL
- MIC [25]: 8 µg/mL
- MIC [26]: 128 µg/mL
- MIC [27]: 1 µg/mL
- MIC [28]: 2 µg/mL
- MIC [29]: 32 µg/mL
- MIC [30]: 64 µg/mL
- MIC [37]: 64 µg/mL
- MIC [32]: 128 µg/mL
- MIC [33]: 1 µg/mL
- MIC [34]: 16 µg/mL
- MIC [35]: 32 µg/mL
- MIC [36]: 64 µg/mL

SMILES: CO[C@H]1/C=C/O[C@@]2(C)Oc3c(C)c(O)c4c(O)c(c(/C=N/N5CCN(C)CC5)c(O)c4c3C2=O)NC(=O)/C(C)=C\C=C\[C@H](C)[C@H](O)[C@@H](C)[C@@H](O)[C@@H](C)[C@H](OC(C)=O)[C@@H]1C [RIFAMPIN]
- MIC [1]: 0.05 µg/mL (≈ 0.0608 µM)
